This is an account of results in patent US8299111B2, “Compounds which modulate the CB2 receptor” (Boehringer Ingelheim International GmbH, priority 2006, dated 2012).

In the test the target is T1, human CB2R (Homo sapiens, UniProt P34972).
T1 construct: host or cells: CHO cells
T1 sequence (P34972 whole entry): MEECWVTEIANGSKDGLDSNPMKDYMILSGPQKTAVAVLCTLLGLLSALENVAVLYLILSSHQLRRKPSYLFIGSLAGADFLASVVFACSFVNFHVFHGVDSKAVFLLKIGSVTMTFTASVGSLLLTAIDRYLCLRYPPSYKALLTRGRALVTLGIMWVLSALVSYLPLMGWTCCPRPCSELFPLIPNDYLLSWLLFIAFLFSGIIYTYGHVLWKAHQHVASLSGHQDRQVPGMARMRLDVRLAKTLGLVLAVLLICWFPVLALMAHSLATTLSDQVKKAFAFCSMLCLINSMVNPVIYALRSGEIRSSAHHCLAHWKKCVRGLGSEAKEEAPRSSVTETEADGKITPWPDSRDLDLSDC
In words: CB2R mediated modulation of cAMP synthesis. Particulars: found through the use of the above described assays (binding and cAMP); CHO cells expressing human CB2R, forskolin-stimulated cAMP. In kind it is cell-based. Summed up:
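EC50 values reflect inhibition of cAMP made in response to 10 uM forskolin (with 1 mM IBMX, 0.25% BSA) over 30 min at 37 °C in human CB2R-expressing CHO cells. The window runs from forskolin alone to 1 uM CP55940; curves fitted with a four-parameter logistic model.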
As for `CC(C)(C)c1cc(NC(=O)C(C)(C)S(=O)(=O)c2cccs2)no1` [N-(5-tert-Butyl-isoxazol-3-yl)-2-methyl-2-(thiophene-2-sulfonyl)-propionamide], the agonistic activity entry is listed as “agonistic activity”.
The entry for `CC(C)(C)c1cc(NC(=O)C(C)(C)S(=O)(=O)c2ccsc2)no1` [N-(5-tert-Butyl-isoxazol-3-yl)-2-methyl-2-(thiophene-3-sulfonyl)-propionamide] is “agonistic activity”.
In the case of `Cc1ccc(S(=O)(=O)C(C)(C)C(=O)Nc2cc(C(C)(C)C)on2)cc1` [N-(5-tert-Butyl-isoxazol-3-yl)-2-methyl-2-(toluene-4-sulfonyl)-propionamide] it was “agonistic activity”; in that of `CC(C)C(C(=O)Nc1cc(C(C)(C)C)on1)S(=O)(=O)c1ccc(C(F)(F)F)cc1` (centres unmarked) [N-(5-tert-Butyl-isoxazol-3-yl)-3-methyl-2-(4-trifluoromethyl-benzenesulfonyl)-butyramide], “agonistic activity”.
Regarding `CC(C)C(C(=O)Nc1cc(C(C)(C)C)on1)S(=O)(=O)c1ccc(C(F)(F)F)cn1` (centres unmarked) [N-(5-tert-Butyl-isoxazol-3-yl)-3-methyl-2-(5-trifluoromethyl-pyridine-2-sulfonyl)-butyramide], the agonistic activity entry is listed as “agonistic activity”.
In the case of `CC(C)(C)c1cnc(NC(=O)C(C)(C)S(=O)(=O)c2ccc(Cl)cc2)s1` [N-(5-tert-Butyl-thiazol-2-yl)-2-(4-chloro-benzenesulfonyl)-2-methyl-propionamide] it was “agonistic activity”; in that of `CC(C)(C)c1nnc(NC(=O)C(C)(C)S(=O)(=O)c2ccc(F)cc2F)s1` [N-(5-tert-butyl-1,3,4-thiadiazol-2-yl)-2-[(2,4-difluorophenyl)sulfonyl]-2-methylpropanamide], “agonistic activity”; in that of `CC(C)(C)c1nnc(NC(=O)C(C)(C)S(=O)(=O)c2ccc(Cl)cc2F)s1` [N-(5-tert-butyl-1,3,4-thiadiazol-2-yl)-2-[(4-chloro-2-fluorophenyl)sulfonyl]-2-methylpropanamide], “agonistic activity”.
On to `CC(C)(C)c1nnc(NC(=O)C(C)(C)S(=O)(=O)c2ccc(C(F)(F)F)nc2)s1` [N-(5-tert-butyl-1,3,4-thiadiazol-2-yl)-2-methyl-2-{[6-(trifluoromethyl)pyridin-3-yl]sulfonyl}propanamide], for which the agonistic activity entry is given as “agonistic activity”.
Regarding `CC(C)(C(=O)Nc1noc2ccccc12)S(=O)(=O)c1ccc(Cl)cc1` [N-Benzo[d]isoxazol-3-yl-2-(4-chloro-benzenesulfonyl)-2-methyl-propionamide], the agonistic activity entry is reported as “agonistic activity”.
On to `CC(C)(C(=O)Nc1nc2ccccc2o1)S(=O)(=O)c1ccc(Cl)cc1` [N-Benzooxazol-2-yl-2-(4-chloro-benzenesulfonyl)-2-methyl-propionamide], for which the agonistic activity result was “agonistic activity”.
As for `CC(C)(C(=O)Nc1nc2ccccc2s1)S(=O)(=O)c1ccc(Cl)cc1` [N-Benzothiazol-2-yl-2-(4-chloro-benzenesulfonyl)-2-methyl-propionamide], the agonistic activity entry is given as “agonistic activity”.
With `COc1ccc(S(=O)(=O)C(C)(C)C(=O)Nc2cc(CC(C)(C)C)no2)cc1` [N-[3-(2,2-dimethylpropyl)isoxazol-5-yl]-2-[(4-methoxyphenyl)sulfonyl]-2-methylpropanamide], the agonistic activity entry is “agonistic activity”.
In the case of `CC(C)(C)Cc1cc(NC(=O)C(C)(C)S(=O)(=O)c2ccc(S(C)(=O)=O)cc2)on1` [N-[3-(2,2-dimethylpropyl)isoxazol-5-yl]-2-methyl-2-{[4-(methylsulfonyl)phenyl]sulfonyl}propanamide] it was “agonistic activity”; in that of `CC(C)(C)Cc1cc(NC(=O)C(C)(C)S(=O)(=O)c2ccc(C(F)(F)F)nc2)on1` [N-[3-(2,2-dimethylpropyl)isoxazol-5-yl]-2-methyl-2-{[6-(trifluoromethyl)pyridin-3-yl]sulfonyl}propanamide], “agonistic activity”; in that of `CC(C)(C(=O)Nc1nc(-c2ccc(Cl)cc2)cs1)S(=O)(=O)c1ccc(F)cc1F` [N-[4-(4-Chloro-phenyl)-thiazol-2-yl]-2-(2,4-difluoro-benzenesulfonyl)-2-methyl-propionamide], “agonistic activity”.
In the case of `COc1ccc(S(=O)(=O)C(C)(C)C(=O)Nc2nc(-c3ccc(Cl)cc3)cs2)cc1` [N-[4-(4-Chloro-phenyl)-thiazol-2-yl]-2-(4-methoxy-benzenesulfonyl)-2-methyl-propionamide] it was “agonistic activity”.
In the case of `Cc1ccc(S(=O)(=O)C(C)(C)C(=O)Nc2nc(-c3ccc(Cl)cc3)cs2)cc1` [N-[4-(4-Chloro-phenyl)-thiazol-2-yl]-2-methyl-2-(toluene-4-sulfonyl)-propionamide] it was “agonistic activity”; in that of `CC(C)(C(=O)Nc1nc(-c2ccc(Cl)cc2)cs1)S(=O)(=O)c1ccc(S(C)(=O)=O)cc1` [N-[4-(4-chlorophenyl)-1,3-thiazol-2-yl]-2-methyl-2-{[4-(methylsulfonyl)phenyl]sulfonyl}propanamide], “agonistic activity”.
On to `CC(C)(C(=O)Nc1nc(-c2ccc(Cl)cc2)cs1)S(=O)(=O)c1ccc(C(F)(F)F)nc1` [N-[4-(4-chlorophenyl)-1,3-thiazol-2-yl]-2-methyl-2-{[6-(trifluoromethyl)pyridin-3-yl]sulfonyl}propanamide], for which the agonistic activity result is “agonistic activity”.
For `CC(C)(C(=O)Nc1ncc(-c2ccc(F)c(F)c2)s1)S(=O)(=O)c1ccc(F)cc1` [N-[5-(3,4-Difluoro-phenyl)-thiazol-2-yl]-2-(4-fluoro-benzenesulfonyl)-2-methyl-propionamide], the agonistic activity result is recorded as “agonistic activity”.
Regarding `CC(C)(C(=O)Nc1cc2ccccc2cn1)S(=O)(=O)c1ccc(C(F)(F)F)nc1` [N-isoquinolin-3-yl-2-methyl-2-{[6-(trifluoromethyl)pyridin-3-yl]sulfonyl}propanamide], the agonistic activity result is given as “agonistic activity”.
In the case of `CCOC(=O)c1sc(NC(=O)C(C)(C)S(=O)(=O)c2ccc(Cl)cc2)nc1C(F)(F)F` [ethyl 2-({2-[(4-chlorophenyl)sulfonyl]-2-methylpropanoyl}amino)-4-(trifluoromethyl)-1,3-thiazole-5-carboxylate] it was “agonistic activity”.
